The record followed here is patent US6399570B1, “Antimicrobial/endotoxin neutralizing polypeptide” (priority 1999, dated 2002).

Where only a bound is given, the exact number is not on record here.

One assay relates to S. abortus LPS. In words: Limulus ELISA, ENC50 against S. abortus LPS. Type of assay: biochemical, Salmonella abortus equi. The note with it: endotoxin 200 EU/ml; mean +/− SD. As to the method: (§1) The peptide-mediated inhibition of endotoxin-induced Limulus amebocyte lysate (LAL) coagulation was measured with a sensitive LAL assay (Zhang et al., J. Clin. Microbiol. 32: 416-422 (1994)). Limulus ELISA is an endotoxin assay based on activation of the LAL coagulation by endotoxin and detection of the generated peptide-C immunoreactivity with an ELISA using a monoclonal antibody to the polypeptide. Endotoxin was defined to be neutralized when it lost its ability to activate the LAL enzymes. The 50% endotoxin-neutralizing concentration (ENC50) reflects the potency of an anti-endotoxin agent; a low ENC50 indicates high potency. Table 2 lists the determined ENC50 value of each anti-endotoxin agent against lipid A and four different types of LPS. The potency of each anti-endotoxin agent varied depending on the type of endotoxin. […] The only difference between the sequence of LF-33 and LF-27 is that LF-27 lacks the first six residues (GRRRRS) at the N-terminus of LF-33. Remarkably, this deletion led to dramatic loss of the endotoxin-neutralizing capacity of the polypeptide in this assay. Binding of serum proteins to endotoxin neutralizes the endotoxin activity in this assay by preventing endotoxin from activating LAL (Emancipator et al., Infect. Immun. 60: 596-601 (1992)).
(§2) LPS. […] LPS (purity >99%) from Neisseria meningitidis was prepared from the group B strain #6275 and its potency was 25 EU/ng. […] The potency of the above endotoxin was determined with the Limulus enzyme-linked immunosorbent assay (ELISA, 43) in comparison with US Pharmacopeia reference standard endotoxin EC-5.
(§3) Briefly, 25 μl endotoxin solution (200 EU/ml) was mixed with an equal volume of test materials in a series of two-fold dilution in 0.15 M NaCl in a sterile 96-well tissue culture plate (Nunc A/S, Roskilde, Denmark), and incubated at 37° C. for 1 h in a dry-air incubator. […] The endotoxin activity was then quantified with the use of Limulus ELISA (Zhang et al., J. Clin. Microbiol. 32: 416-422 (1994)). […] The high sensitivity of the assay allowed for very low levels of the endotoxin activity to be detected. […]
For orientation: An ELISA detects its analyte on a solid surface through an enzyme-linked reagent.

For assay [1], the system named is lipid A from E. coli 0113. In words: LAL assay, neutralization of lipid A endotoxin activity (FIG. 6). It is filed as biochemical. The note with it: lipid A 30 ng/ml. As to the method:
The lipid A region of the LPS molecule is primarily responsible for the inflammatory and toxic effects of LPS. When LPS is released from the microbe, the lipid A portion may become more accessible. The following assays were performed to determine the potential of various amino-terminal LF polypeptides to neutralize the endotoxic activity of the lipid A portion of LPS. LF, the 6 kDa fragment of LF, LF-33, LF-27, and polymyxin B were each tested for the ability to neutralize the endotoxin activity of lipid A from E. coli 0113 (30 ng/ml), using a LAL assay. […] The endotoxin activity of the smaller fragments of LF indicate that endotoxin-neutralizing activity of these small polypeptides is masked when in the context of the intact LF molecule.

For assay [2], the system named is E. coli 0111. Put plainly: Time course of E. coli growth in the presence of LF polypeptides. It is filed as cell-based. The note with it: 50 μM, seven hour time course, OD 600 nm. The procedure: To investigate whether regions of the molecule involved in GAG binding activity of the 6 kDa LF polypeptide (generated from pepsin digestion) are also involved in the antimicrobial activity of the 6 kDa polypeptide of the present invention, polypeptides of various lengths corresponding to the N-terminal amino acid sequence of LF were tested for the ability to inhibit the growth of E. coli 0111. Overnight cultures were grown over a seven hour time course in the presence of 50 μM of either LF, a 33-mer corresponding to amino acids 1-33 of LF, a 26-mer corresponding to […] of LF, a 27-mer corresponding to amino acids 1-27 of LF. […] This is consistent with LF and the 33-mer inhibiting bacterial growth via different mechanisms. […] The failure of the 26-mer and the 27-mer to inhibit culture growth emphasizes the importance of retaining both clusters of basic residues, at the termini of the 33-mer, for the antimicrobial functionality of polypeptides derived from the N-terminal LF sequence.
Time course of E. coli growth in the presence of LF polypeptides. E. coli cells, clinical isolate strain 0111, were obtained from ATCC. […] Culture growth was monitored spectrophotometrically by measuring optical density at 600 nm at each indicated time point.

A further assay concerns P. aer. LPS. Put plainly: Limulus ELISA, ENC50 against P. aer. LPS. The note with it: endotoxin 200 EU/ml; mean +/− SD. It is filed as biochemical, Pseudomonas aeruginosa. The procedure:
as §1, §2, §3

The test system of assay [3] is E. coli 0111. Put plainly: Potentiation of Rifampicin by LF polypeptides. As to conditions: 5 μM polypeptide + 0.9 μg/ml rifampicin, 6 hr.
Description: E. coli cultures were exposed to sub-optimal doses of Rifampicin in the presence or absence of sub-optimal doses of the indicated polypeptides (FIG. 5), and were incubated for 6 hours, at which point CFU were determined.
E. coli 0111 were grown overnight as described above. Overnight cultures were then diluted 1:16,000 in 1% BP/PBS containing 0.9 μg/ml Rifampicin (Sigma-Aldrich Fine chemicals) and 5 μM LF polypeptides as indicated. Control cultures were those not exposed to any polypeptide. The diluted cultures were then incubated at 37° C. for 6 hr with aeration by shaking. The number of viable bacteria were then determined by dilution plating samples from each group and subsequently counting colony forming units (CFU). All values represent the average of duplicate independent experiments.

With `CSCC[C@H](NC(=O)[C@H](CC(N)=O)NC(=O)[C@H](CCCNC(=N)N)NC(=O)[C@H](CCC(N)=O)NC(=O)[C@H](Cc1c[nH]c2ccccc12)NC(=O)[C@H](CCC(N)=O)NC(=O)[C@H](Cc1ccccc1)NC(=O)[C@H](CS)NC(=O)[C@H](CCCCN)NC(=O)[C@@H](NC(=O)[C@H](C)NC(=O)[C@H](CCC(=O)O)NC(=O)[C@@H]1CCCN1C(=O)[C@H](CCC(N)=O)NC(=O)[C@H](CO)NC(=O)[C@@H](NC(=O)[C@H](C)NC(=O)[C@H](CS)NC(=O)[C@H](Cc1c[nH]c2ccccc12)NC(=O)[C@H](CCC(N)=O)NC(=O)[C@@H](N)C(C)C)C(C)C)[C@@H](C)O)C(=O)N[C@@H](CCCNC(=N)N)C(=O)N[C@@H](CCCCN)C(=O)N[C@H](C(=O)N[C@@H](CCCNC(=N)N)C(=O)NCC(=O)N1CCC[C@H]1C(=O)O)C(C)C` [LF-27], in the assay with S. abortus LPS, the “ENC50 against S. abortus LPS” value is “no detectable activity” and the IC50 (in general, the concentration that gives 50% inhibition) is above 300 µM. Besides, the “lipid A neutralizing activity” value in assay [1] is “neutralized lipid A”. For the same compound, in the assay with E. coli 0111 [2], the “growth of E. coli 0111 cultures” value is on record as “failure”. Besides, in the assay with P. aer. LPS, the “ENC50 against P. aer. LPS” value is on record as “no detectable activity” and the IC50 is above 300 µM. Moreover, the “effect on the antimicrobial activity of rifampicin (viable bacteria)” value in the assay on E. coli 0111 [3] was “no significant effect”.

With “6 kDa polypeptide: 6 kDa fragment produced by cathepsin D digestion of human LF, amino acids 1-49 of SEQ ID NO: 2 (GRRRRSVQWCAVSQPEATKCFQWQRNMRKVRGPPVSCIKRDSPIQCIQA; listed as Homo sapiens)”, the “lipid A neutralizing activity” value in assay [1] was “neutralized lipid A”. The “effect on the antimicrobial activity of rifampicin (viable bacteria)” value in the assay with E. coli 0111 [3] is “more than three orders of magnitude”.
